Columns and labels:
Type in all cases: physicochemical
[1] = Association of doxorubicin with porous particles; conditions: 5 mg doxorubicin hydrochloride, 5 mg SEPHADEX® C25, 2 h at 4° C.
Description: The overall procedure was as in example 7, but incorporating doxorubicin (C27H29NO11,PM543, 53) in place of haemoglobin, 5 mg of doxorubicin hydrochloride being dissolved in 1 ml of distilled water and incubated with 5 mg of porous particles (SEPHADEX® C25) substituted with carboxymethyl groups. The pore size of the particles was such that molecules with a maximum molecular weight of 25000 could penetrate. The suspension was stirred for 2 h at 4° C. with a planetary stirrer. It was then decanted and the free doxorubicin concentration was measured by UV spectrophotometry at 480 nm. […] The non-absorbed doxorubicin fraction was removed by decanting and washing the cake with distilled water.

[2] = Association of doxorubicin with small-size porous particles; conditions: 5 mg doxorubicin, 5 mg small-size porous particles, 2 h
Description: The procedure was as in example 10, but an attempt was made to prepare smaller sized porous particles. 1 g of SEPHADEX® C25 porous matrix was dispersed in 100 ml of distilled water and the preparation was ground for 15 min with a helical mill. The preparation was then centrifuged at 3000 g for 10 min and the supernatant was recovered and then subjected to further centrifuging at 25000 g for 45 min. The supernatant was removed, the cake was put back into suspension and 50 mg of a dry product were obtained following freeze-drying. The size of the particles obtained, measured by a particle analyzer, was between 300 and 500 nm.
5 mg of these small-size porous particles were dispersed in 5 ml of distilled water. 5 mg of doxorubicin were added and the whole was stirred for 2 h. The concentration of doxorubicin not associated with the particles was determined by ultrafiltration of an aliquot of the suspension through an ultrafiltration membrane of which the separation threshold was 50000, and the concentration of free doxorubicin was measured by UV spectrometry at 480 nm. […] These were then used as they were without supplementary purification.

[3] = Absorption of haemoglobin on the porous substrate; conditions: 20 mg haemoglobin, 5 mg SEPHADEX® SPC50, pH 6.5, 24 h at 4° C.
Description: 5 mg of porous particles (SEPHADEX® SPC50) with a diameter of 150 μm substituted with sulfopropyl groups and having a pore size sufficient to allow the penetration of molecules with a maximum molecular weight of 250000, were dispersed in 5 ml of a 10 mM bi-tri buffer, of pH 6.5 (where the haemoglobin is cationic and is attracted inside the anionic sites of the porous particles). 20 mg of haemoglobin, extracted from human erythrocytes by the lysis method in a hypotonic medium, were then added to this dispersion. The preparation was stirred for 24 h at 4° C. on a planetary stirrer. The particles were then decanted and the quantity present in the supernatant was determined by UV spectrometry at 410 nm. […] The non-absorbed haemoglobin was removed by decanting the particles and washing them with a 10 mM bi-tri buffer.

Row | Compound | doxorubicin associated with the particles [1] | doxorubicin associated with the particles [2] | haemoglobin present inside the particles [3]
1 | COc1cccc2c1C(=O)c1c(O)c3c(c(O)c1C2=O)C[C@@](O)(C(=O)CO)C[C@@H]3O[C@H]1C[C@H](N)[C@H](O)[C@H](C)O1 [doxorubicin] | more than 97% | more than 98% | –
2 | haemoglobin: haemoglobin extracted from human erythrocytes by the lysis method in a hypotonic medium | – | – | more than 98%

From patent US20030036518A1, “ARTIFICIAL POLYMERIC MEMBRANE STRUCTURE, METHOD FOR PREPARING SAME, METHOD FOR PREPARING THIS POLYMER, PARTICLE AND FILM CONTAINING THIS STRUCTURE” (priority 1996, published 2003)
